# Experimental data taken from US20150204846A1, “PHOSPHATIDYLINOSITOL-3-KINASE C2 BETA MODULATORS AND METHODS OF USE THEREOF” (NEW YORK UNIVERSITY, priority 2012, published 2015).
# “Also recorded” adds a separate entry of the source.
# Tested on: KCa3.1
# Test: Whole cell patch clamp of FcεR1 stimulated KCa3.1 channel activity in BMMCs
# Type: cell-based, mouse
# Details: for rescue of FcεR1 stimulated KCa3.1 channel activity: TRIM27+/+ BMMC transfected with siRNA to PI3KC2β, phosphoinositide added to the pipette solution (PI3P 100 nM)
# Method: Whole cell patch clamping was performed on TRIM27^+/+ and TRIM27^−/− BMMCs that were first sensitized overnight with anti-DNP IgE and then stimulated with DNP-HSA using conditions previously described (5). Briefly, the standard pipette solution contained 140 mM KCl, 2 mM MgCl2, 10 mM Hepes, 2 mM Na^+-ATP and 0.1 mM GTP, pH 7.3. The standard external solution contained 140 mM NaCl, 5 mM KCl, 2 mM CaCl2, 1 mM MgCl2 and 10 mM Hepes, pH 7.3. Whole-cell currents were recorded using an Axoclamp 200 B amplifier (Axon Instruments, Foster City, Calif., USA), and currents were evoked by applying voltage commands to a range of potentials in 10 mV steps from a holding potential of 20 mV. For measuring the membrane potential, ruptured patch was used in current clamp mode as described in (34).
# To verify that PI3KC2β mediated activation of KCa3.1 via the generation of PI3P, PI3P (100 nM) was added into the pipette solution during patch clamping in BMMCs in which PI3KC2β was knocked down using siRNA (32). PI(3)P diC16 [C41H45Na3O16P2 (C6)] was purchased from Echelon Biosciences and used according to specifications at a concentration of 100 nM in the pipette solution.
Molecule,rescue of FcεR1 stimulated KCa3.1 channel activity,"rescue of KCa3.1 channel activity (TRIM27-/- BMMC transfected with siRNA to PI3KC2β, PI3P added to the pipette solution)",rescue of FcεR1 stimulated KCa3.1 channel activity (listed as PI(4)P)
"CCCCCCCCCCCCCCCC(=O)OC[C@H](COP(=O)(O)O[C@@H]1[C@H](O)[C@H](OP(=O)(O)O)[C@@H](O)[C@H](O)[C@H]1O)OC(=O)CCCCCCCCCCCCCCC [PI3P, phosphatidylinositol 3 phosphate]",restored,rescue,
PI4P,failed to rescue,,failure
"PI(3,4,5)P3",failed to rescue; also recorded: failure,,
